# Laboratory results from patent publication US12274731B1, “Polybasic antimalarial agents and methods of use thereof” (priority 2018, dated 2025).
# Read-outs that look alike come from different tables or passages of the source.
# What was measured:
# [1] = tested on: Plasmodium falciparum (Dd2 and Nf54); experiment: P. falciparum growth assay / dose-response in human erythrocyte culture (parasitemia after 72 h, acridine orange, FACS); assay type: cell-based; conditions: for parasite growth (endpoint parasitemia, percentage of control): 72-hour treatment, equal concentrations in the media; for IC50: P. falciparum in human erythrocytes, about 72 hours post compound addition
# Text: FIG. 4A-FIG. 4D. […] DHHC8 transcript codes for five consecutive lie-residues. Levels of each transcript are normalized to total ribosome levels and represented as a ratio of transcript levels under Ile starvation (−Ile) over the control conditions (+Ile). […] Western blot analysis of Ile starved (−Ile), and control (+Ile) sample are normalized to PfHAD1 (PF3D7_1033400) levels. HA-tagged P. falciparum Pelo protein was CRISPR/Cas9 engineered and detected using mouse HA-antibody. The molecular weight of each protein is indicated. […] (D) P. falciparum growth assay in the presence of different compounds and amino acid polymers. Data represent endpoint parasitemia after 72-hour treatment with the indicated compound. Results are normalized to non-treated cultures (control) and presented as a percentage of control samples. Average value from three biological replicates is reported with standard deviation.
# The lack of P. falciparum taxis during invasion of host cells, alterations in cytoadhesive properties of infected erythrocytes and previously shown invasion-blocking effects of heparin prompted testing whether poly-lysine repeats in P. falciparum membrane proteins contribute to the overall efficiency of parasite invasion of host erythrocytes.
# For FIG. 21-FIG. 25, the general procedure for the drug assays included a total sample volume of 200 μl, every concentration was performed in triplicate, hematocrit was 2%, and starting parasitemia was 1%. The starting concentration of drug was 100 μg/ml and the serial dilution was made from the starting concentration. The end concentration was 0.39 μg/ml). The control represents growth of the parasite culture without added drug. All samples were subjected to Acridine orange staining and the FACS analysis was done on 96 well plates. FlowJo was used to calculate parasitemia.
# Dose-response experiments were performed in triplicate with mixed culture of P. falciparum (1.0%-1.2% starting parasitemia). Parasitemias (percentage of total erythrocytes infected with parasites) were measured approximately 72 hours post compound addition by nucleic acid staining of infected red blood cells with 0.8 mg/ml acridine orange in PBS. Inhibition data were fit to a sigmoidal dose-response curve was done using Graphpad Prism 5.0.
# [2] = Structure preservation of crystalline PLL; assay type: physicochemical; conditions: 37° C.
# uninfected human cells = experiment: Binding to uninfected human cells (fluorescence microscopy); assay type: cell-based
# Experimental: Here, the same procedure as for above (FIG. 19) was performed for the cell culture, except for the incubation volume was 1 ml in PBS and the images were taken on a lab microscope.
# human erythrocytes = experiment: Hemolysis in erythrocyte culture; assay type: cell-based; conditions: at IC50
# [3] = tested on: mCherry labelled P. berghei; experiment: Treatment of mice infected with mCherry labelled P. berghei; assay type: in vivo; conditions: 4 doses, over 7 days of infection
# Text: Intraperitoneal treatment of mice results in the reduction of parasitemia over 2 days (see e.g., FIG. 25).
Substance,activity against Plasmodium / malaria [1],"parasite growth (endpoint parasitemia, percentage of control) [1]",IC50 [1],binding to other human cells (uninfected human cells) (uninfected human cells),also measured
"10-L-lysines (SEQ ID NO: 4): Poly (L) lysine of 10 residues in length, from Alamanda polymers (KKKKKKKKKK; Synthetic polybasic peptide)",no activity,–,–,–,–
heparin,–,inhibiting parasite growth,12 µg/mL,–,–
poly-L-lysine,–,efficient reduction of parasite growth,9 µg/mL,do not detectably bind,structure preservation [2]: preserves structure; hemolysis (human erythrocytes): without hemolysis; parasitemia [3]: reduces parasitemia
poly-L-ornithine,–,efficient reduction of parasite growth,–,do not detectably bind,–
poly-glutamate,–,did not affect the growth of parasites,–,–,–
poly-ε-L-lysine,not shown to be effective,–,–,–,activity against Plasmodium / malaria ([1]; listed as Epsilon poly-lysine): did not appear to have activity
